Measured values as given in US12295919B2, “Methods of treatment and prevention using 4-deoxy-L-erythro-5-hexoseulose uronic acid” (MIE UNIVERSITY, priority 2022, dated 2025).

Key:
[1] = system: Caco-2 cell monolayer; assay: Membrane permeability using Caco-2 cell monolayer; format: in vitro ADME, human
Protocol: When Caco-2 cells (human colon cancer-derived cell line) are cultured in a monolayer on a porous membrane filter, they differentiate into intestinal epithelium-like cells. Owing to the differentiation, they express brush borders and tight junctions similar to columnar epithelial cells of the small intestine, as well as metabolic enzymes and transporters present in the human small intestine. Therefore, the Caco-2 cell monolayer is widely used as a model to predict absorption from the intestinal tract.
Using the Caco-2 cell monolayer, the membrane permeability of DEH was confirmed.
Next, using the model apparatuses shown in FIGS. 2A-2B, the electrical resistance value (transepithelial electrical resistance (TEER) value) using an electrical resistance system (voltohmmeter) sold under the trademark MILLICELL™ ESR-2 (FIG. 2A) and permeability using Lucifer Yellow (FIG. 2B) were measured to confirm that a single layer film was formed. The single layer films, in which the TEER value was more than 300 Ω·cm2 and the permeability of Lucifer yellow was 0.3% to 2%, were used in the test.
Permeability (absorption) of substances, which were added to the apical (AP: apical, luminal) side, to the basolateral (BL) side, or permeability (excretion) of substances, which were added to the BL side, to the AP side was evaluated.
An ER value of less than 2 means absorption from the intestinal tract, and an ER value of 2 or more means excretion from the intestinal tract.

[2] = system: blood-brain barrier in vitro reconstitution system model (RBT-24H); assay: BBB permeability using rat-type BBB kit (RBT-24H); format: in vitro ADME, Wistar rat
Protocol: Next, DEH permeability was evaluated using a commercially available BBB kit (blood-brain barrier in vitro reconstitution system model (RBT-24H: PharmaCo-Cell Company Ltd.)). This kit uses endothelial cells, pericytes and astrocytes of Wistar rat origin. The above-mentioned SIM measurement of LC/MS was used in the detection and quantification of DEH. A 1000 μg/mL DEH solution was added to the blood vessel side, and after 30 minutes, culture medium on the brain parenchyma side was collected. Then, the DEH concentration in the collected culture medium was measured.
A summary of data, which examined permeability subgroups that migrate into the brain for various compounds, are shown in Table 3.

[3] = system: C. elegans strain HA759; assay: Inhibitory effect on neuronal death in PolyQ disease model; format: in vivo; settings: 120 hours after start of culturing
Source text: The effect of DEH on neuronal death of the C. elegans strain HA759, which is a PolyQ disease model, was also investigated. HA759 strain (rtIs11 [osm-10p:: GFP+osm−10p: HtnQ150+dpy−20 (+)]) is a C. elegans strain which expresses Htn-Q150 (human huntingtin) and the fluorescent protein GFP downstream of the osm-10 gene when it receives a signal from ASH neurons. In accordance with the duration of the culture time, HA759 causes death of ASH neurons due to progressive neurodegeneration owing to accumulation of PolyQ.
Age-synchronized HA759 strain was cultured using mNGM medium. Control (DEH−), 25 mM DEH and 50 mM DEH were used as evaluation groups (samples). E. coli OP50-1 was used as nematode food.
Ten nematodes each were observed under a microscope immediately after the start of culture of the HA759 strain and after 24, 48, 72, and 120 hours to confirm whether nerve cells were alive or dead (n=30).
Each data is shown as mean±standard error. […] Thus, DEH inhibited, in a dose-dependent manner, PolyQ-induced neuronal death in the HA759 strain. Because DEH suppresses (reduces) PolyQ aggregation and neuronal cell death, DEH can treat and/or prevent symptoms of PolyQ disease, such as involuntary movement and dementia.

[4] = system: PC-12 cells; assay: Neurite outgrowth activity using PC-12 cells; format: cell-based, rat
Protocol: Next, the characteristics of DEH were investigated using PC-12 cells. PC-12 cells are cells that were isolated from rat adrenal medullary pheochromocytoma and established as a strain. Nerve growth factor (NGF) is not needed for survival of PC-12 cells, but proliferation is arrested, nerve fibers elongate, and sympathetic ganglion neuron-like properties develop by using NGF. Owing to these properties, PC-12 cells have been used as a model for neural differentiation.
PC-12 cells were cultured and divided into 8 subgroups: no addition (Control), DEH addition (10, 50, 100 μM), NGF addition, NGF addition+DEH addition (10, 50, 100 μM), and elongation of neurite formation was observed. ImageJ software was used to measure neurite length. FIGS. 5A-5C show photographs of cells observed under a microscope; in FIG. 6 the neurite length (μm) of each subgroup is shown. Each data is shown as mean±standard error of triplicate tests. Statistical analysis was performed using the t-test, and a significance level of less than 5% (p<0.05) was considered significant.
NGF addition+DEH addition (50, 60, 70, 80, 90, 100 μM) was divided into 6 subgroups, and the elongation and number of neurites were observed and are shown in FIGS. 7 and 8. Each data is shown as mean±standard error of triplicate tests.

[5] = system: human iPS cell-derived intestinal epithelial cells; assay: Membrane permeability using human iPS cell-derived intestinal epithelial monolayer; format: in vitro ADME
Protocol: The permeability of DEH through membrane was confirmed using human iPS cells. […] Therefore, results closer to the human body can be obtained using iPS cell-derived intestinal epithelial cells as compared to those using the Caco-2 cell model test.
Using a CO2 incubator (37° C., 5% CO2), human iPS cell-derived intestinal epithelial cells were cultured for 13 to 20 days to prepare a monolayer.
The membrane permeability of the human iPS cell-derived intestinal epithelial monolayer membrane was evaluated by the method described above in <Test 1> using an electrical resistance system (voltohmmeter) sold under the trademark MILLICELL™ ESR-2. Monolayer films, in which the TEER value was more […], were used in the test.
Permeability (absorption) of substances, which were added to the AP side, to the BL side, or permeability (excretion) of substances, which were added to the BL side, to the AP side was evaluated. The above-mentioned SIM measurement of LC/MS was used in the detection and quantification of DEH.

[6] = system: DAF-16; assay: Expression and activation (nuclear localization) of DAF-16; format: in vivo, C. elegans; settings: 72 hours at 20° C.; for nuclear localization rate of DAF-16: TJ356 strain (Control 2.2%); for intermediate localization rate of DAF-16: TJ356 strain (Control 24.4%)
Source text: The FOXO gene daf-16 is one of the components of the insulin/IGF-1 signaling pathway that controls many biological processes such as lifespan, metabolism, and stress response. When DAF-16 is localized in the nucleus, it activates the transcription of numerous genes involved in the regulation of stress tolerance promotion and pathogen protection. Therefore, the involvement of DEH in the activation of daf-16 was examined using the C. elegans TJ356 strain.
The TJ356 strain (zls356 [daf-16p::daf-16a/b::GFP+rol-6 (su1006)]) is a nematode, in which a fluorescent protein GFP has been inserted into the daf-16 promoter, and nuclear translocation by daf-16 gene activation can be observed by fluorescence of the GFP.
Age-synchronized TJ356 strain was cultured using mNGM medium at 20° C. for 72 hours. As evaluation groups (samples), positive control (group heat-treated at 37° C. for 30 minutes after 72-hour culture), control (DEH−), 25 mM DEH and 50 mM DEH were used. E. coli OP50-1 was used as nematode food.
After culturing the TJ356 strain, 15 nematodes in each group were observed under a microscope to confirm the presence or absence of nuclear localization of the DAF-16 protein (GFP fluorescence) (n=60).
Each data is shown as mean±standard error. […] Thus, DEH increased the nuclear localization ratio of DAF-16 as compared to the Control.

[7] = system: blood-brain barrier in vitro reconstitution system model (MBT-24H); assay: BBB permeability using cynomolgus monkey-type BBB kit (MBT-24H); format: in vitro ADME
Protocol: The permeability of DEH was evaluated using a commercially available BBB kit (blood-brain barrier in vitro reconstitution system model (MBT-24H: PharmaCo-Cell Company, Ltd.)). The kit uses cynomolgus monkey-derived cells as endothelial cells. The permeability of DEH was evaluated using this model.
The reconstituted cynomolgus monkey BBB model has a structure closer to that of human BBB as compared to that of the kit in <Test 2>, so it was considered to be a better model for evaluating whether DEH permeates the human BBB.
After the test, the DEH concentration on the brain parenchyma side was obtained, and the DEH permeability was calculated.

[8] = human iPS cell-derived intestinal epithelial monolayer, mean ± s.e.
[9] = cynomolgus monkey BBB kit, mean ± s.e.

**Q.** What does the source list for `O=C[C@@H](O)[C@@H](O)CC(=O)C(=O)O` [DEH, 4-deoxy-L-erythro-5-hexoseulose uronic acid]?
**A.** Absorption category ([1]; Caco-2 Papp compared with Table 2): moderate; Papp AP to BL ([1]; Caco-2 monolayer, absorption direction, mean ± s.e.): 5.13 ± 0.22 ×10^−6 cm/s; Papp BL to AP ([1]; Caco-2 monolayer, excretion direction, mean ± s.e.): 2.78 ± 0.12 ×10^−6 cm/s; ER (B→A/A→B) ([1]; Caco-2 monolayer, ER less than 2 means absorption from the intestinal tract): 0.542; Papp (DEH permeability, blood vessel side to brain parenchyma side) ([2]; 1000 μg/mL DEH, 30 minutes): 14.62±6.86 ×10^−6 cm/s; Permeability category ([2]; Papp compared with Table 3): good (10~20); neuronal death suppressed (decreased) as compared to the Control ([3]; 25 mM DEH): 20.3%; neuronal death suppressed (decreased) as compared to the Control ([3]; 50 mM DEH): 46.4%; neurite outgrowth, DEH alone ([4]; DEH 10, 50, 100 μM without NGF): did not induce neurite outgrowth; optimum concentration (maximum neurite elongation and number) ([4]; NGF + DEH 50-100 μM): 70 µM; promotion of the function of NGF (neurite length) ([4]; NGF addition + DEH addition, p<0.05 vs NGF): significantly (p<0.05) promote the function of NGF; Efflux ratio (ER) (B-A/A-B) ([5]; human iPS cell-derived intestinal epithelial monolayer): 0.907; Papp AP to BL [5, 8]: 8.78 ± 1.49 ×10^−6 cm/s; Papp BL to AP [5, 8]: 7.97 ± 1.26 ×10^−6 cm/s; Absorption category ([5]; iPS-derived monolayer Papp compared with Table 2): moderate; nuclear localization rate of DAF-16 ([6]; 25 mM DEH): 40.0%; intermediate localization rate of DAF-16 ([6]; 25 mM DEH): 35.6%; nuclear localization rate of DAF-16 ([6]; 50 mM DEH): 51.1%; intermediate localization rate of DAF-16 ([6]; 50 mM DEH): 31.1%; Efflux ratio (ER) (B-A/A-B) ([7]; cynomolgus monkey BBB kit): 0.766; Papp Blood side (A) to Brain side (B) [7, 9]: 2.88 ± 0.24 ×10^−6 cm/s; Papp Brain side (B) to Blood side (A) [7, 9]: 2.20 ± 0.55 ×10^−6 cm/s; Permeability category ([7]; monkey BBB kit, Papp compared with Table 3): low (2~10)
